Measurements as given in ChEMBL document CHEMBL1152339, “Use of the in vivo hollow fiber assay in natural products anticancer drug discovery” (J Nat Prod, 2009).

Experiments:
LNCaP [1] = assay: Growth inhibition of human LNCAP cells xenografted in NCr nu/nu mouse at 0.78 to 3.125 mg/kg, ip once daily administered from day 3 to 6 after implantation measured on day 7 by MTT-based hollow-fiber test; type: functional; conditions: route intraperitoneal
KB [2] = assay: Growth inhibition of human KB cells xenografted in NCr nu/nu mouse at 0.78 to 3.125 mg/kg, sc once daily administered from day 3 to 6 after implantation measured on day 7 by MTT-based hollow-fiber test; type: functional; conditions: route subcutaneous
KB [3] = assay: Growth inhibition of human KB cells xenografted in NCr nu/nu mouse at 0.78 to 3.125 mg/kg, ip once daily administered from day 3 to 6 after implantation measured on day 7 by MTT-based hollow-fiber test; type: functional; conditions: route intraperitoneal
LNCaP [4] = assay: Growth inhibition of human LNCAP cells xenografted in ip dosed NCr nu/nu mouse administered once daily from day 3 to 6 after implantation measured on day 7 by MTT-based hollow-fiber test; type: functional
LNCaP [5] = assay: Growth inhibition of human LNCAP cells xenografted in NCr nu/nu mouse at 0.78 to 3.125 mg/kg, sc once daily administered from day 3 to 6 after implantation measured on day 7 by MTT-based hollow-fiber test; type: functional; conditions: route subcutaneous
MCF7 [6] = assay: Growth inhibition of human MCF7 cells xenografted in ip dosed NCr nu/nu mouse administered once daily from day 3 to 6 after implantation measured on day 7 by MTT-based hollow-fiber test; type: functional
[7] = Acute toxicity in ip dosed mouse; type: organism-based; conditions: in vivo
MCF7 [8] = assay: Growth inhibition of human MCF7 cells xenografted in NCr nu/nu mouse at 0.625 to 5 mg/kg, sc once daily administered from day 3 to 6 after implantation measured on day 7 by MTT-based hollow-fiber test; type: functional; conditions: dose mg/kg 3-6; route subcutaneous
MCF7 [9] = assay: Growth inhibition of human MCF7 cells xenografted in NCr nu/nu mouse at 0.625 to 5 mg/kg, ip once daily administered from day 3 to 6 after implantation measured on day 7 by MTT-based hollow-fiber test; type: functional; conditions: dose mg/kg 3-6; route intraperitoneal
Lu1 [10] = assay: Growth inhibition of human Lu1 cells xenografted in ip dosed NCr nu/nu mouse administered once daily from day 3 to 6 after implantation measured on day 7 by MTT-based hollow-fiber test; type: functional
Lu1 [11] = assay: Growth inhibition of human Lu1 cells xenografted in NCr nu/nu mouse at 0.625 to 5 mg/kg, sc once daily administered from day 3 to 6 after implantation measured on day 7 by MTT-based hollow-fiber test; type: functional; conditions: dose mg/kg 3-6; route subcutaneous
LNCaP [12] = assay: Growth inhibition of human LNCAP cells xenografted in NCr nu/nu mouse at 0.625 to 5 mg/kg, sc once daily administered from day 3 to 6 after implantation measured on day 7 by MTT-based hollow-fiber test; type: functional; conditions: route subcutaneous
Lu1 [13] = assay: Growth inhibition of human Lu1 cells xenografted in NCr nu/nu mouse at 0.625 to 5 mg/kg, ip once daily administered from day 3 to 6 after implantation measured on day 7 by MTT-based hollow-fiber test; type: functional; conditions: dose mg/kg 3-6; route intraperitoneal
LNCaP [14] = assay: Growth inhibition of human LNCAP cells xenografted in NCr nu/nu mouse at 0.625 to 5 mg/kg, ip once daily administered from day 3 to 6 after implantation measured on day 7 by MTT-based hollow-fiber test; type: functional; conditions: route intraperitoneal
LNCaP [15] = assay: Growth inhibition of human LNCAP cells xenografted in NCr nu/nu mouse at 5 to 20 mg/kg, sc once daily administered from day 3 to 6 after implantation measured on day 7 by MTT-based hollow-fiber test; type: functional; conditions: route subcutaneous
LNCaP [16] = assay: Growth inhibition of human LNCAP cells xenografted in NCr nu/nu mouse at 5 to 20 mg/kg, ip once daily administered from day 3 to 6 after implantation measured on day 7 by MTT-based hollow-fiber test; type: functional; conditions: route intraperitoneal
KB [17] = assay: Growth inhibition of human KB cells xenografted in NCr nu/nu mouse at 6.2 to 25 mg/kg, ip once daily administered from day 3 to 6 after implantation measured on day 7 by MTT-based hollow-fiber test; type: functional; conditions: route intraperitoneal
LNCaP [18] = assay: Growth inhibition of human LNCAP cells xenografted in NCr nu/nu mouse at 6.2 to 25 mg/kg, ip once daily administered from day 3 to 6 after implantation measured on day 7 by MTT-based hollow-fiber test; type: functional; conditions: route intraperitoneal
Lu1 [19] = assay: Growth inhibition of human Lu1 cells xenografted in NCr nu/nu mouse at 6.2 to 25 mg/kg, ip once daily administered from day 3 to 6 after implantation measured on day 7 by MTT-based hollow-fiber test; type: functional; conditions: dose mg/kg 3-6; route intraperitoneal
KB [20] = assay: Growth inhibition of human KB cells xenografted in NCr nu/nu mouse at 6.2 to 25 mg/kg, sc once daily administered from day 3 to 6 after implantation measured on day 7 by MTT-based hollow-fiber test; type: functional; conditions: route subcutaneous
Lu1 [21] = assay: Growth inhibition of human Lu1 cells xenografted in NCr nu/nu mouse at 6.2 to 25 mg/kg, sc once daily administered from day 3 to 6 after implantation measured on day 7 by MTT-based hollow-fiber test; type: functional; conditions: dose mg/kg 3-6; route subcutaneous
LNCaP [22] = assay: Growth inhibition of human LNCAP cells xenografted in NCr nu/nu mouse at 6.2 to 25 mg/kg, sc once daily administered from day 3 to 6 after implantation measured on day 7 by MTT-based hollow-fiber test; type: functional; conditions: route subcutaneous
KB [23] = assay: Growth inhibition of human KB cells xenografted in NCr nu/nu mouse at 0.195 to 1.56 mg/kg, ip once daily administered from day 3 to 6 after implantation measured on day 7 by MTT-based hollow-fiber test; type: functional; conditions: route intraperitoneal
Col2 [24] = assay: Growth inhibition of human Col2 cells xenografted in ip dosed NCr nu/nu mouse administered once daily from day 3 to 6 after implantation measured on day 7 by MTT-based hollow-fiber test; type: functional
Col2 [25] = assay: Growth inhibition of human Col2 cells xenografted in NCr nu/nu mouse at 0.195 to 1.56 mg/kg, sc once daily administered from day 3 to 6 after implantation measured on day 7 by MTT-based hollow-fiber test; type: functional; conditions: route subcutaneous
KB [26] = assay: Growth inhibition of human KB cells xenografted in NCr nu/nu mouse at 0.195 to 1.56 mg/kg, sc once daily administered from day 3 to 6 after implantation measured on day 7 by MTT-based hollow-fiber test; type: functional; conditions: route subcutaneous
LNCaP [27] = assay: Growth inhibition of human LNCAP cells xenografted in NCr nu/nu mouse at 0.195 to 1.56 mg/kg, ip once daily administered from day 3 to 6 after implantation measured on day 7 by MTT-based hollow-fiber test; type: functional; conditions: route intraperitoneal
Col2 [28] = assay: Growth inhibition of human Col2 cells xenografted in NCr nu/nu mouse at 0.195 to 1.56 mg/kg, ip once daily administered from day 3 to 6 after implantation measured on day 7 by MTT-based hollow-fiber test; type: functional; conditions: route intraperitoneal
LNCaP [29] = assay: Growth inhibition of human LNCAP cells xenografted in NCr nu/nu mouse at 0.195 to 1.56 mg/kg, sc once daily administered from day 3 to 6 after implantation measured on day 7 by MTT-based hollow-fiber test; type: functional; conditions: route subcutaneous

CC(=O)O[C@@H]1O[C@@H]([C@H]2c3cccc(O)c3C(=O)c3c(O)cc(C)cc32)[C@H](O)[C@@H](OC(=O)C=C(C)C)[C@H]1O [ALVARADOIN H]
growth inhibition (GI) (LNCaP [1]): 47% | growth inhibition (GI) (KB [2]): 1% | growth inhibition (GI) (KB [3]): 43% | ED50 (LNCaP [4]): 290 nM | growth inhibition (GI) (LNCaP [5]): 10%

COC(=O)[C@H]1[C@@H](O)[C@@]2(O)c3c(OC)cc(O[C@@H]4O[C@@H]([C@H](O)CO)CO[C@H]4OC)cc3O[C@@]2(c2ccc(OC)cc2)[C@@H]1c1ccccc1 [SILVESTROL]
ED50 (LNCaP [4]): 1.5 nM | ED50 (MCF7 [6]): 1.5 nM | MTD [7]: 2.5 mg/kg | growth inhibition (GI) (MCF7 [8]): 5% | growth inhibition (GI) (MCF7 [9]): 20% | ED50 (Lu1 [10]): 1.2 nM | growth inhibition (GI) (Lu1 [11]): 0% | growth inhibition (GI) (LNCaP [12]): 12% | growth inhibition (GI) (Lu1 [13]): 12% | growth inhibition (GI) (LNCaP [14]): 15%

O=C1OC[C@@H]2Cc3cc4c(cc3[C@@H](c3ccc5c(c3)OCO5)[C@H]12)OCO4 [PICROPOLYGAMAIN]
ED50 (LNCaP [4]): 3100 nM | growth inhibition (GI) (LNCaP [15]): 3% | growth inhibition (GI) (LNCaP [16]): 21%

C[C@@H]1CC[C@@]2(OC1)O[C@H]1C[C@H]3[C@@H]4CC=C5C[C@@H](O[C@@H]6O[C@H](CO)[C@@H](O[C@@H]7O[C@@H](C)[C@H](O)[C@@H](O)[C@H]7O)[C@H](O)[C@H]6O[C@@H]6O[C@@H](C)[C@H](O)[C@@H](O)[C@H]6O)CC[C@]5(C)[C@H]4CC[C@]3(C)[C@H]1[C@@H]2C [DIOSCIN]
growth inhibition (GI) (KB [17]): 79% | growth inhibition (GI) (LNCaP [18]): 37% | ED50 (LNCaP [4]): 1700 nM | growth inhibition (GI) (Lu1 [19]): 25% | ED50 (Lu1 [10]): 1200 nM | growth inhibition (GI) (KB [20]): 4% | growth inhibition (GI) (Lu1 [21]): 0% | growth inhibition (GI) (LNCaP [22]): 36%

CC(=O)O[C@@H]1O[C@@H]([C@H]2c3cccc(O)c3C(=O)c3c(O)cc(C)cc32)[C@H](O)[C@@H](O)[C@H]1O [ALVARADOIN E]
growth inhibition (GI) (KB [23]): 40% | ED50 (Col2 [24]): 230 nM | growth inhibition (GI) (Col2 [25]): 6% | ED50 (LNCaP [4]): 140 nM | growth inhibition (GI) (KB [26]): 5% | growth inhibition (GI) (LNCaP [27]): 60% | growth inhibition (GI) (Col2 [28]): 31% | growth inhibition (GI) (LNCaP [29]): 10%
